Counter-ions that a name gives are not always drawn.
What was measured:
[1] = % protein (toxicity estimate, Bradford) after transfection; assay type: cell-based, human; conditions: human, jurkat cells, 15 μg lipid; 2 μg pCMVCAT; 6 h RPMI1640
Procedure: (§1) A one-to-one mixture (by weight) of the desired lipid and dioleylphosphatidyl ethanolamine was prepared in CHCl3. The CHCl3 was removed on the rotary evaporator to obtain a thin film of lipid mixture. The mixture was hydrated with enough water to obtain approximately 1.25 mg of lipid per ml of solution. The solution was passed through a microfluidizer twice and diluted to 1 mg/ml. The liposome formulation was then filtered through a 0.2 μ filter. Compound 8 was also formulated without DOPE either by sonication at 1 mg/ml in water or by dissolving a dried lipid film with ethanol and then adding water to give a final concentration of 2.5 mg/ml. Ethanol was 10% of that volume. In some instances, this was further diluted with water to 1 mg/ml, 4% ethanol.
(§2) Baby hamster kidney (BHK-21) , COS-7, HeLa-S3 cells, and normal human fibroblasts isolated from newborn foreskin dermis were grown in Dulbecco's-modified Eagle's medium (DMEM) containing 10% fetal bovine serum (FBS), 2 mM L-glutamine (gln), 0.1 mM MEM nonessential amino acids (NEAA), 100 U/ml penicillin, and 100 μg/ml streptomycin. NIH-3T3 cells were grown in DMEM containing 10% calf serum (CS), 2 mMgln, 0.1 mM NEAA 100 U/ml penicillin, and 100 μg/ml streptomycin. PC12 cells were grown in DMEMcontaining 10% horse serum, 5% FBS, 2 mM gln, 0 1 mMNEAA, 100 U/ml penicillin and 100 μ/ml streptomycin. Jurkat cells (human lymphoid cell line) were grown in RPMI-1640 supplemented with 10% FBS, 2mML-glutamine, 100 U/ml penicillin, and 100 μg/ml streptomycin. Human keratinocytes were isolated from newborn foreskin epidermis and cultured in Keratinocyte Growth Medium (Clonetics, San Diego, Ca.). All cell lines were maintained in a humidified incubator with a 5% CO2 atmosphere at 37° C.
(§3) For transient nuclear expression of pSV2CAT or pCMVCAT in Jurkat cells, cells were washed with Opti-MEM I or serum-free RPMI 1640 containing 2 mM gln and plated in six-well plates at a density of 3×10^6 cells per well in 0.8 ml Opti-MEM I or RPMI 1640. For each transfection, 5 μg pSV2CAT DNA or 2 μg pCMVCAT DNA was diluted in 100 μl Opti-MEM I. Lipids were diluted separately in another 100 μl aliquot of Opti-MEMI. The two solutions were then mixed in a polystyrene tube and incubated for 10-15 min at room temperature. The DNA-liposome complex was added to the cell suspensions and incubated 6 hours at 37° C., after which 4 ml growth medium were added per well (RPMI-1640; 10% FBS). Phorbol myristate acetate (Sigma Chemical Co., St. Louis, Mo.) and phytohemagglutinin (Sigma) were also added to a final concentration of 50 ng/ml and 1 μg/ml, respectively, to activate the cells. Cells were harvested at approximately 48 hours post-transfection by centrifugation. Cell lysates were prepared by resuspending cell pellets at 0° C. in 0.1 M Tris-HC1 pH 8.0 containing 0.1% Triton X-100 and freeze-thawing once. Cell lysates were cleared by centrifugation and assayed for CAT activity.
(§4) The "% protein" column indicates the relative amount of protein in the sample tested for CAT activity and therefore provides a way to estimate toxicity of the compounds being tested. The "CAT Activity" column indicates the relative transfection effectiveness of the lipid formulation in the various cell lines. The control sample was a cell culture grown under similar conditions as those that were transfected, but with no DNA or cationic lipid added. Protein was measured using a commercially available Bradford protein assay (BioRad Laboratories, Richmond, Ca.).
(§5) Jurkat cells (3 × 10^6 cells) were transfected in OPTIMEM with
(§6) μg of pSV2CAT DNA for 6 hours.
(§7) DNA-lipid complexes were made in OPTIMEM. Jurkat cells (3 × 10^
(§8) cells) were transfected in RPMI1640 with 2 μg of pCMVCAT DNA for 6

[2] = tested on: Jurkat cells; assay: as above; assay type: cell-based, human; conditions: Jurkat
Procedure: as §1, §2, §3, §4, §5, §6, §7, §8

## CCCCCCCC/C=C\CCCCCCCCOCC(C[N+](C)(C)CCNC(=O)C(CCCNCCCN)NCCCN)OCCCCCCCC/C=C\CCCCCCCC (centres unmarked) [Compound 8, 1-Propanaminium, N-[2-[[2,5-bis[(3-amino]-1-oxopentyl]amino]ethyl]-n,n-dimethyl-2,3,-bis(9-octadecenyloxy)-, tetra(trifluoroacetate) salt]
[1]
  viability at 6 h: 47%
[2]
  toxicity (in words): minimal toxicity
